Laboratory results from PubChem BioAssay (NCI).
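Grown in 96-well plates, cells were treated for 48 hours with each compound at five concentrations. Insufficient inhibition: endpoint recorded as highest concentration tested. Definition used: TGI = concentration required for complete inhibition of growth.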

Key:
Assay in all cases: inhibition of tumour cell growth, NCI panel, 48 h
[1] = test system: COLO 205 colon
[2] = test system: UACC-62 melanoma
[3] = test system: RXF 393 renal
[4] = test system: OVCAR-4 ovarian
[5] = test system: MCF7 breast
[6] = test system: DU-145 prostate
[7] = test system: M14 melanoma
[8] = test system: SK-OV-3 ovarian
[9] = test system: CAKI-1 renal
[10] = test system: SK-MEL-28 melanoma
[11] = test system: TK-10 renal
[12] = test system: HT29 colon
[13] = test system: SNB-75 CNS
[14] = test system: A549 NSCLC
[15] = test system: HL-60(TB) leukemia
[16] = test system: MOLT-4 leukemia
[17] = test system: SN12C renal
[18] = test system: OVCAR-5 ovarian
[19] = test system: MDA-N
[20] = test system: PC-3 prostate
[21] = test system: NCI-H226 lung
[22] = test system: A498 renal
[23] = test system: CCRF-CEM leukemia
[24] = test system: HOP-62 NSCLC
[25] = test system: NCI-H522 lung
[26] = test system: SF-268 CNS
[27] = test system: IGROV1 ovarian
[28] = test system: SW-620 colon
[29] = test system: ACHN renal
[30] = test system: HCT-116 colon
[31] = test system: NCI-H460 lung
[32] = test system: KM12 colon
[33] = test system: MDA-MB-231 breast
[34] = test system: LOX IMVI melanoma
[35] = test system: EKVX NSCLC
[36] = test system: RPMI-8226 leukemia
[37] = test system: HS 578T breast
[38] = test system: NCI/ADR-RES ovarian
[39] = test system: NCI-H23 lung
[40] = test system: SNB-19 CNS
[41] = test system: SR leukemia
[42] = test system: SF-295 CNS
[43] = test system: OVCAR-8 ovarian
[44] = test system: SF-539 CNS
[45] = test system: SK-MEL-2 melanoma
[46] = test system: UO-31 renal
[47] = test system: OVCAR-3 ovarian
[48] = test system: K-562 leukemia
[49] = test system: U251 CNS
[50] = test system: MDA-MB-435
[51] = test system: 786-0 renal
[52] = test system: HCC-2998 colon
[53] = test system: HOP-92 NSCLC
[54] = test system: UACC-257 melanoma
[55] = test system: T-47D breast
[56] = test system: BT-549 breast
[57] = test system: MALME-3M melanoma
[58] = test system: SK-MEL-5 melanoma
[59] = test system: HCT-15 colon

## C[C@H](CCC(=O)O)[C@H]1CC[C@H]2[C@@H]3[C@@H](O)C[C@@H]4C[C@H](O)CC[C@]4(C)[C@H]3CC[C@]12C
[1]
  TGI: > 100 µM
[2]
  TGI: > 100 µM
[3]
  TGI: > 100 µM
[4]
  TGI: > 100 µM
[5]
  TGI: > 100 µM
[6]
  TGI: > 100 µM
[7]
  TGI: > 100 µM
[8]
  TGI: > 100 µM
[9]
  TGI: > 100 µM
[10]
  TGI: > 100 µM
[11]
  TGI: > 100 µM
[12]
  TGI: > 100 µM
[13]
  TGI: > 100 µM
[14]
  TGI: > 100 µM
[15]
  TGI: > 100 µM
[16]
  TGI: > 100 µM
[17]
  TGI: > 100 µM
[18]
  TGI: > 100 µM
[19]
  TGI: > 100 µM
[20]
  TGI: > 100 µM
[21]
  TGI: > 100 µM
[22]
  TGI: > 100 µM
[23]
  TGI: > 100 µM
[24]
  TGI: > 100 µM
[25]
  TGI: > 100 µM
[26]
  TGI: > 100 µM
[27]
  TGI: > 100 µM
[28]
  TGI: > 100 µM
[29]
  TGI: > 100 µM
[30]
  TGI: > 100 µM
[31]
  TGI: > 100 µM
[32]
  TGI: > 100 µM
[33]
  TGI: > 100 µM
[34]
  TGI: > 100 µM
[35]
  TGI: > 100 µM
[36]
  TGI: > 100 µM
[37]
  TGI: > 100 µM
[38]
  TGI: > 100 µM
[39]
  TGI: > 100 µM
[40]
  TGI: > 100 µM
[41]
  TGI: > 100 µM
[42]
  TGI: > 100 µM
[43]
  TGI: > 100 µM
[44]
  TGI: > 100 µM
[45]
  TGI: > 100 µM
[46]
  TGI: > 100 µM
[47]
  TGI: > 100 µM
[48]
  TGI: > 100 µM
[49]
  TGI: > 100 µM
[50]
  TGI: > 100 µM
[51]
  TGI: > 100 µM
[52]
  TGI: > 100 µM
[53]
  TGI: > 100 µM
[54]
  TGI: > 100 µM
[55]
  TGI: > 100 µM
[56]
  TGI: > 100 µM
[57]
  TGI: > 100 µM
[58]
  TGI: > 100 µM
[59]
  TGI: > 100 µM

## O=Cc1ccc(-c2nccc3c2[nH]c2ccccc23)o1
[1]
  TGI: > 100 µM
[2]
  TGI: > 100 µM
[3]
  TGI: > 81.9 µM
[4]
  TGI: > 100 µM
[5]
  TGI: > 100 µM
[6]
  TGI: > 100 µM
[7]
  TGI: > 100 µM
[8]
  TGI: > 100 µM
[9]
  TGI: 41.4 µM
[10]
  TGI: > 100 µM
[11]
  TGI: > 100 µM
[12]
  TGI: > 100 µM
[13]
  TGI: > 100 µM
[14]
  TGI: > 100 µM
[15]
  TGI: > 100 µM
[16]
  TGI: > 100 µM
[17]
  TGI: > 100 µM
[18]
  TGI: > 100 µM
[19]
  TGI: > 100 µM
[20]
  TGI: > 100 µM
[21]
  TGI: 9.86 µM
[22]
  TGI: 1.46 µM
[23]
  TGI: > 100 µM
[24]
  TGI: > 100 µM
[25]
  TGI: > 100 µM
[26]
  TGI: > 100 µM
[27]
  TGI: > 100 µM
[28]
  TGI: > 100 µM
[29]
  TGI: > 100 µM
[30]
  TGI: > 100 µM
[31]
  TGI: > 100 µM
[32]
  TGI: > 100 µM
[33]
  TGI: > 100 µM
[34]
  TGI: > 56.2 µM
[35]
  TGI: > 100 µM
[36]
  TGI: > 100 µM
[37]
  TGI: > 100 µM
[38]
  TGI: > 100 µM
[39]
  TGI: > 100 µM
[40]
  TGI: > 100 µM
[41]
  TGI: > 100 µM
[42]
  TGI: 51.2 µM
[43]
  TGI: > 100 µM
[44]
  TGI: > 100 µM
[45]
  TGI: > 100 µM
[46]
  TGI: > 100 µM
[47]
  TGI: > 100 µM
[48]
  TGI: > 100 µM
[49]
  TGI: > 100 µM
[50]
  TGI: > 100 µM
[51]
  TGI: > 100 µM
[52]
  TGI: > 100 µM
[53]
  TGI: 98.6 µM
[54]
  TGI: > 55.9 µM
[55]
  TGI: > 100 µM
[56]
  TGI: > 100 µM
[57]
  TGI: > 100 µM
[58]
  TGI: > 100 µM
[59]
  TGI: > 100 µM
